Patent US10357493B2, “Metalloenzyme inhibitor compounds” (Selenity Therapeutics (Bermuda), Ltd., priority 2017, dated 2019)
Read-outs that look alike come from different tables or passages of the source.

Columns and labels:
HDAC9 = HDAC9 (Homo sapiens (Human), UniProt Q9UKV0); assay: HDAC9 enzymatic assay; type: biochemical; settings: selectivity profile; read-out: HDAC Enzyme IC50, HDAC 9
Method: (§1) All enzymatic reactions were conducted in duplicate at room temperature for 17 hours in a 50 μl mixture containing HDAC assay buffer (50 mM Tris-HCl, pH 7.4, 137 mM NaCl, 2.7 mM KCl, 0.05% Tween 20, 5 μg BSA), an HDAC substrate, an HDAC enzyme, and a test compound. Compound dilution was prepared ten-fold higher than the final concentration of the compounds with 10% DMSO in HDAC assay buffer and 5 μl of the dilution was added to a 50 μl reaction so that the final concentration of DMSO is 1% in all of reactions. After enzymatic reactions, 50 μl of HDAC Developer was added to each well and the plate was incubated at room temperature for an additional 20 minutes. Fluorescence intensity was measured at an excitation of 360 nm and an emission of 460 nm using a Tecan Infinite M1000 or Biotek Synergy microplate reader.
(§2) The fluorescent intensity data were analyzed using the computer software, Graphpad Prism. In the absence of the compound, the fluorescent intensity (Ft) in each data set was defined as 100% activity. In the absence of HDAC, the fluorescent intensity (Fb) in each data set was defined as 0% activity. The percent activity in the presence of each compound was calculated according to the following equation: % activity=(F−Fb)/(Ft−Fb), where F=the fluorescent intensity in the presence of the compound.
(§3) The values of % activity versus a series of compound concentrations were then plotted using non-linear regression analysis of Sigmoidal dose-response curve generated with the equation Y=B+(T−B)/1+10((Log EC50−X)×Hill Slope), where Y=percent activity, B=minimum percent activity, T=maximum percent activity, X=logarithm of compound and Hill Slope=slope factor or Hill coefficient. The IC50 value was determined by the concentration causing a half-maximal percent activity.
(§4) HDAC1 enzymatic assays contained 0.5 ng HDAC1 and 10 uM of HDAC substrate. HDAC2 enzymatic assays contained 0.5 ng HDAC2 and 10 uM of HDAC substrate. HDAC3 enzymatic assays contained 0.4 ng HDAC3/NCOR2 and 10 uM of HDAC substrate. HDAC4 enzymatic assays contained 0.02 ng HDAC4 and 2 uM of HDAC substrate. HDAC5 enzymatic assays contained 0.5 ng HDAC5 and 2 uM of HDAC substrate. HDAC6 enzymatic assays contained 2 ng HDAC6 and 10 uM of HDAC substrate. HDAC7 enzymatic assays contained 0.05 ng HDAC7 and 2 uM of HDAC substrate. HDAC8 enzymatic assays contained 5 ng HDAC8 and 2 uM of HDAC substrate. HDAC9 enzymatic assays contained 1 ng HDAC9 and 2 uM of HDAC substrate. HDAC10 enzymatic assays contained 75 ng HDAC10 and 10 uM of HDAC substrate. HDAC11 enzymatic assays contained 5 ng HDAC11 and 2 uM of HDAC substrate.

HDAC8 = HDAC8 (Homo sapiens (Human), UniProt Q9BY41); assay: HDAC8 enzymatic assay; type: biochemical; settings: selectivity profile; read-out: HDAC Enzyme IC50, HDAC 8
Method: as §1, §2, §3, §4

HDAC5 = HDAC5 (Homo sapiens (Human), UniProt Q9UQL6); assay: HDAC5 enzymatic assay; type: biochemical; settings: selectivity profile; read-out: HDAC Enzyme IC50, HDAC 5
Method: as §1, §2, §3, §4

HDAC10 = HDAC10 (Homo sapiens (Human), UniProt Q969S8); assay: HDAC10 enzymatic assay; type: biochemical; settings: selectivity profile; read-out: HDAC Enzyme IC50, HDAC 10
Method: as §1, §2, §3, §4

HDAC3/NCOR2 = HDAC3/NCOR2 (Homo sapiens (Human), UniProt O15379); assay: HDAC3 enzymatic assay; type: biochemical; settings: selectivity profile; read-out: HDAC Enzyme IC50, HDAC 3
Method: as §1, §2, §3, §4

[1] = Mouse Pharmacokinetics, oral single dose; type: in vivo, male Swiss Albino mice; settings: male, Swiss Albino, plasma, 5 mg/kg, formulation by footnote: a 20% CremEL in H20, b 1% CMC in water, c 2% DMSO, 0.2% Tween80, 97.8% of 1% CMC
Method: Example 187: Mouse Pharmacokinetics
A dose of 5 mg/kg in an appropriate formulation was administered by oral gavage to fasted male Swiss Albino mice (n=3), and the plasma was collected at 0, 0.25, 0.5, 1, 2, 4, 8, and 24 h. Plasma levels were measured by HPLC/MS/MS methods and the pharmacokinetic parameters were determined for individual animals from plasma concentration-time data using noncompartmental model 200-202 in Phoenix WinNonlin 6.3.

HDAC11 = HDAC11 (Homo sapiens (Human), UniProt Q96DB2); assay: HDAC11 enzymatic assay; type: biochemical; settings: selectivity profile; read-out: HDAC Enzyme IC50, HDAC 11
Method: as §1, §2, §3, §4

HDAC1 = HDAC1 (Homo sapiens (Human), UniProt Q13547); assay: HDAC1 enzymatic assay; type: biochemical
Summary of the method: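 HDAC1 activity was measured in duplicate 50 μl reactions containing 0.5 ng HDAC1, 10 uM of HDAC substrate, and test compound in buffer (50 mM Tris-HCl, pH 7.4, 137 mM NaCl, 2.7 mM KCl, 0.05% Tween 20, 5 μg BSA) with 1% DMSO, incubated 17 hours at room temperature. HDAC Developer was then added for 20 minutes and fluorescence read at 360/460 nm.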

HDAC2 = HDAC2 (Homo sapiens (Human), UniProt Q92769); assay: HDAC2 enzymatic assay; type: biochemical; settings: selectivity profile; read-out: HDAC Enzyme IC50, HDAC 2
Method: as §1, §2, §3, §4

HDAC6 = HDAC6 (Homo sapiens (Human), UniProt Q9UBN7); assay: HDAC6 enzymatic assay; type: biochemical
Summary of the method: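 Human HDAC6 activity was measured in duplicate 50 μl reactions holding 2 ng HDAC6, 10 uM of HDAC substrate and test compound in HDAC assay buffer (50 mM Tris-HCl, pH 7.4, 137 mM NaCl, 2.7 mM KCl, 0.05% Tween 20, 5 μg BSA) with 1% DMSO, for 17 hours at room temperature. HDAC Developer was added for 20 minutes before reading fluorescence at 360/460 nm.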

HDAC7 = HDAC7 (Homo sapiens (Human), UniProt Q8WUI4); assay: HDAC7 enzymatic assay; type: biochemical; settings: selectivity profile; read-out: HDAC Enzyme IC50, HDAC 7
Method: as §1, §2, §3, §4

HDAC4 = HDAC4 (Homo sapiens (Human), UniProt P56524); assay: HDAC4 enzymatic assay; type: biochemical; settings: selectivity profile; read-out: HDAC Enzyme IC50, HDAC 4
Method: as §1, §2, §3, §4

[2] = selectivity profile, read-out: HDAC Enzyme IC50, HDAC 1
[3] = selectivity profile, read-out: HDAC Enzyme IC50, HDAC 6

HDAC8, sequence (Q9BY41 whole entry, species assumed): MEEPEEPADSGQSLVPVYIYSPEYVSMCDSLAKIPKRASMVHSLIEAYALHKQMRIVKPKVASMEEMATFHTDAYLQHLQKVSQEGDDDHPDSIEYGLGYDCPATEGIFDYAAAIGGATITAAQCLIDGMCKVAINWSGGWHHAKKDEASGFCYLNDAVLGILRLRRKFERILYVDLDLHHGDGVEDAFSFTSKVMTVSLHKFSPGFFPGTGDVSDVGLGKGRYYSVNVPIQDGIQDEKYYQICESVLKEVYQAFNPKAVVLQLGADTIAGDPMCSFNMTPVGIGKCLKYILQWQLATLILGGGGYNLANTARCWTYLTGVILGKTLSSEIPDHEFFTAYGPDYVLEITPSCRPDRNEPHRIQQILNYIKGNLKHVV
HDAC3/NCOR2, sequence (O15379 whole entry, looked up, species assumed): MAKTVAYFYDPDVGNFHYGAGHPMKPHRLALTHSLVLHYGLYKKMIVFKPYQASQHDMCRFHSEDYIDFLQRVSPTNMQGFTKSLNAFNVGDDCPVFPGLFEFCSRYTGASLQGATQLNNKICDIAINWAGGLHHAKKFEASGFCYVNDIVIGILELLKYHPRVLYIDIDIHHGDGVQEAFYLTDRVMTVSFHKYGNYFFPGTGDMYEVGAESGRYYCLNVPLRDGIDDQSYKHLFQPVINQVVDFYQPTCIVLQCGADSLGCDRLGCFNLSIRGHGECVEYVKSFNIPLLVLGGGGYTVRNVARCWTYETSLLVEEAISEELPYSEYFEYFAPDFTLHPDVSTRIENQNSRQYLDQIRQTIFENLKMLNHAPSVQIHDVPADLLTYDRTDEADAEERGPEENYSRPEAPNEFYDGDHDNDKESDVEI
HDAC3/NCOR2, sequence (Q9Y618 whole entry partner, looked up, species assumed): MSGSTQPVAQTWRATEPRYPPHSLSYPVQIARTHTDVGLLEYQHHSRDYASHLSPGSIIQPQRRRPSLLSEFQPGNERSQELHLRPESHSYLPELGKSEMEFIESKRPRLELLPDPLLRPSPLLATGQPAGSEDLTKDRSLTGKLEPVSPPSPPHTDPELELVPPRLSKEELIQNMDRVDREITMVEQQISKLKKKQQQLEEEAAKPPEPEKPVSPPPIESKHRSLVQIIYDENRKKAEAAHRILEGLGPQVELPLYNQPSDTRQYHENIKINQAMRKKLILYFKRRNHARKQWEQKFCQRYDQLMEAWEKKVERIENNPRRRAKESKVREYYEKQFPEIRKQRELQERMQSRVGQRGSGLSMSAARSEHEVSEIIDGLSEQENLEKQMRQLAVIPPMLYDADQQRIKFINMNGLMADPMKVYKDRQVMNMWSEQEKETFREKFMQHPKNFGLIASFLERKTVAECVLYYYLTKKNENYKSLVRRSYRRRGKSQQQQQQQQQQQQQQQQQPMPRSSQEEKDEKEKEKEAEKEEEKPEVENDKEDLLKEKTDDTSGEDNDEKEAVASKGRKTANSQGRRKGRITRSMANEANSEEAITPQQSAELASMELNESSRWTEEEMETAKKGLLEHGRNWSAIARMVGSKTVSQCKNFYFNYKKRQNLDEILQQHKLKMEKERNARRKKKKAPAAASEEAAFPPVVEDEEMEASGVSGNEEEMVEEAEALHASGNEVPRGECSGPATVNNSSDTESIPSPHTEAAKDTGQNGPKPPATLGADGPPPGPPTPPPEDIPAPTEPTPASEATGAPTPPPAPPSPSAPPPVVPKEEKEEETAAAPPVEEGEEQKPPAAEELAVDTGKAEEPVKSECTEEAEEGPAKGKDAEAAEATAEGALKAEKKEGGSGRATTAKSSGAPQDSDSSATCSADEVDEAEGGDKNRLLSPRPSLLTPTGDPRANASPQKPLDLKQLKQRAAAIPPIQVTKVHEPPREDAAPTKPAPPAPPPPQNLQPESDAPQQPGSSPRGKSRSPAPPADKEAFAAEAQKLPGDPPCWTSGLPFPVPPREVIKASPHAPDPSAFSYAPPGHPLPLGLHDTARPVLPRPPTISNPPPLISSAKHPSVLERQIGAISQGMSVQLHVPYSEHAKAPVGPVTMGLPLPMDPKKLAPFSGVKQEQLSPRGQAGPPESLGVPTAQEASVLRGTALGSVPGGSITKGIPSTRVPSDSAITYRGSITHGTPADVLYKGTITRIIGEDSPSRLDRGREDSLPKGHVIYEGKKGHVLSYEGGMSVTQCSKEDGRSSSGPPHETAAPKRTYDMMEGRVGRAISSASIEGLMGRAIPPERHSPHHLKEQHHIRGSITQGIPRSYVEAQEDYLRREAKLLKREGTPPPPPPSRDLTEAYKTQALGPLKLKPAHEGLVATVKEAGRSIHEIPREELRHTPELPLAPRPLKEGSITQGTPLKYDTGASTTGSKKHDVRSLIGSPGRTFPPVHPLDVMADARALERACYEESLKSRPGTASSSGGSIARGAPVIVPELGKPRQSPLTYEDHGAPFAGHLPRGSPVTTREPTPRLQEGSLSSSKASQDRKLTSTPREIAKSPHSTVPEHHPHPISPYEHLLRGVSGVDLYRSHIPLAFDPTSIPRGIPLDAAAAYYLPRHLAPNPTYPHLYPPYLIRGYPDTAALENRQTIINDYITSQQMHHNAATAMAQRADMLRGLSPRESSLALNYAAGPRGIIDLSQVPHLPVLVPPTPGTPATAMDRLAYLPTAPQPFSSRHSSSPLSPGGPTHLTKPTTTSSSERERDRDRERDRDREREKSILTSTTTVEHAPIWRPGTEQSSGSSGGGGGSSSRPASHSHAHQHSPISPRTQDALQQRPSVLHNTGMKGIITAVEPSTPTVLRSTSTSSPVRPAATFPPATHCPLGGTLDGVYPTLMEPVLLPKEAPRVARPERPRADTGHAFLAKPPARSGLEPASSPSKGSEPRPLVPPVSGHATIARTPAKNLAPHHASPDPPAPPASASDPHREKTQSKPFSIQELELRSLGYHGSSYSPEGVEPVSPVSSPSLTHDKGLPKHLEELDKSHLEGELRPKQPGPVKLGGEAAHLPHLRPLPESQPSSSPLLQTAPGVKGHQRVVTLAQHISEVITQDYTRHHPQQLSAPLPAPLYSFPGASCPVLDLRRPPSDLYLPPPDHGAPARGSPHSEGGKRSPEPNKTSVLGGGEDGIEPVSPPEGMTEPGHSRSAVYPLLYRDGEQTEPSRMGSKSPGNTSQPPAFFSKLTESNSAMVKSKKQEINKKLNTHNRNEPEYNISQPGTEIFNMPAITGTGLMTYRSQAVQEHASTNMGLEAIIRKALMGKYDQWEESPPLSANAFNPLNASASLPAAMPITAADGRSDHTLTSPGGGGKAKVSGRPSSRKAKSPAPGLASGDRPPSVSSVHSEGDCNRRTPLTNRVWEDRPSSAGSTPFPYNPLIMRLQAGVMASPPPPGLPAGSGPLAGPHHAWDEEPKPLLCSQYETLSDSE
HDAC7, sequence (Q8WUI4 whole entry): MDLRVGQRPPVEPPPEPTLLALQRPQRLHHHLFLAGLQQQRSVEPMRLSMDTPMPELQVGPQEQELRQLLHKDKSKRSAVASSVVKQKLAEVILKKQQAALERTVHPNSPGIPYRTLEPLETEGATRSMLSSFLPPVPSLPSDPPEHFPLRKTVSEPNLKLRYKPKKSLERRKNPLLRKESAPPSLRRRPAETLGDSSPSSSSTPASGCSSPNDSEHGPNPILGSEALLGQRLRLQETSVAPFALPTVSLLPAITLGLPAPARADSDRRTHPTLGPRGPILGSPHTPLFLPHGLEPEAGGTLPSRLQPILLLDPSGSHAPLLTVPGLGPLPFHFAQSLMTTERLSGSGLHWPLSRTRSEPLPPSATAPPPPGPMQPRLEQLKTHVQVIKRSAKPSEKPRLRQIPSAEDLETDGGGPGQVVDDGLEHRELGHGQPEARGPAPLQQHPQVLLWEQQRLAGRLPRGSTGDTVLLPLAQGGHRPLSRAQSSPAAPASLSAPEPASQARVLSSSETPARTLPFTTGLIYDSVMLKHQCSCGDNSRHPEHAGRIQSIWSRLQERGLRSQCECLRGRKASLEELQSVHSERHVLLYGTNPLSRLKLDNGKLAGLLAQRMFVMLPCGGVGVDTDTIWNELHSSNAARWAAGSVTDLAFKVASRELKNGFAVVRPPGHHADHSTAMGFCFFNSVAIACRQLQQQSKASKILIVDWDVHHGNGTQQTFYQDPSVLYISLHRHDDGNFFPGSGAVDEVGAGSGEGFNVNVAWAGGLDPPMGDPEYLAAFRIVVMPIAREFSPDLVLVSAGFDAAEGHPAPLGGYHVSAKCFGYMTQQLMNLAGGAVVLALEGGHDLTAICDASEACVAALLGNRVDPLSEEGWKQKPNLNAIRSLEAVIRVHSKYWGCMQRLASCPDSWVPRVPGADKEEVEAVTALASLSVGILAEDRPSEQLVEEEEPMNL
HDAC2, sequence (Q92769 whole entry, species assumed): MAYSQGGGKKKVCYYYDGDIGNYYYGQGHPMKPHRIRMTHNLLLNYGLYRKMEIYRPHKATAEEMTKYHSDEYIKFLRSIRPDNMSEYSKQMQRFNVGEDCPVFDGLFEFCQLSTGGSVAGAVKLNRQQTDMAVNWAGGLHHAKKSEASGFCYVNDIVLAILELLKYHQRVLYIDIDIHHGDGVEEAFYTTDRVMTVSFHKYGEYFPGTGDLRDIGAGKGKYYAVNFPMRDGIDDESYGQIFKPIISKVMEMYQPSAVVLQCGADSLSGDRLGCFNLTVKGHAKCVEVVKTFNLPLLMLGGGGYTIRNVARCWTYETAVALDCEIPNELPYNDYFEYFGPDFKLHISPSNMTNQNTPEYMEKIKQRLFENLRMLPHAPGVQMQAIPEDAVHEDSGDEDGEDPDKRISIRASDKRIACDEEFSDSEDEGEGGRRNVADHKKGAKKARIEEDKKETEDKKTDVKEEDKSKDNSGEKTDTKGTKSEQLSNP

Molecule `CS(=O)(=O)NCC(Nc1ncc(-c2nnc(C(F)F)o2)cn1)c1ccc(F)cc1` (single isomer, unassigned) [38(+), N-(2-((5-(5-(difluoromethyl)-1,3,4-oxadiazol-2-yl)pyrimidin-2-yl)amino)-2-(4-fluorophenyl)ethyl) methanesulfonamide] has an IC50 (HDAC9) greater than 30 µM, an IC50 (HDAC8) greater than 30 µM and an IC50 (HDAC5) greater than 30 µM. The IC50 (HDAC10) was greater than 30 µM, the IC50 (HDAC3/NCOR2) was greater than 30 µM and the Cmax [1] was 1110 ng/mL. It also gave a half-life [1] of 2.7 h, an IC50 (HDAC11) greater than 30 µM and an IC50 (HDAC1; read-out: Human HDAC1 IC50) greater than 30 µM. The IC50 (HDAC1; [2]) was greater than 30 µM, the IC50 (HDAC2) was greater than 30 µM and the IC50 (HDAC6; read-out: Human HDAC6 IC50) was 0.015 µM. For the same molecule, the IC50 (HDAC6; [3]) was 0.015 µM, the IC50 (HDAC7) was 16.7 µM and the IC50 (HDAC4) was greater than 30 µM.

In the case of `CS(=O)(=O)NCC(Nc1ncc(-c2nnc(C(F)F)o2)cn1)c1ccc(OC(F)F)cc1` (single isomer, unassigned) [115(+), N-(2-(4-(difluoromethoxy)phenyl)-2-((5-(5-(difluoromethyl)-1,3,4-oxadiazol-2-yl)pyrimidin-2-yl)amino)ethyl)methanesulfonamide], the IC50 (HDAC9) is reported as greater than 30 µM, the IC50 (HDAC8) is reported as greater than 30 µM and the IC50 (HDAC5) is reported as greater than 30 µM. The IC50 (HDAC10) was greater than 30 µM, the IC50 (HDAC3/NCOR2) was greater than 30 µM and the Cmax [1] was 656 ng/mL. It also gave a half-life [1] of 4.3 h, an IC50 (HDAC11) greater than 30 µM and an IC50 (HDAC1; read-out: Human HDAC1 IC50) greater than 30 µM. It also gave an IC50 (HDAC1; [2]) greater than 30 µM, an IC50 (HDAC2) greater than 30 µM and an IC50 (HDAC6; read-out: Human HDAC6 IC50) of 0.018 µM. The IC50 (HDAC6; [3]) was 0.018 µM, the IC50 (HDAC7) was 11.9 µM and the IC50 (HDAC4) was 10.7 µM.

`CS(=O)(=O)N(CC(Nc1ncc(-c2nnc(C(F)F)o2)cn1)c1ccc(F)cc1)CC(F)(F)F` (single isomer, unassigned) [118(+), N-(2-((5-(5-(difluoromethyl)-1,3,4-oxadiazol-2-yl)pyrimidin-2-yl)amino)-2-(4-fluorophenyl)ethyl)-N-(2,2,2-trifluoroethyl)methanesulfonamide] gave an IC50 (HDAC9) greater than 30 µM, an IC50 (HDAC8) greater than 30 µM and an IC50 (HDAC5) greater than 30 µM. For the same molecule, the IC50 (HDAC10) was greater than 30 µM, the IC50 (HDAC3/NCOR2) was greater than 30 µM and the Cmax [1] was 697 ng/mL. For the same molecule, the half-life [1] was 23.2 h, the IC50 (HDAC11) was greater than 30 µM and the IC50 (HDAC1; read-out: Human HDAC1 IC50) was greater than 30 µM. For the same molecule, the IC50 (HDAC1; [2]) was greater than 30 µM, the IC50 (HDAC2) was greater than 30 µM and the IC50 (HDAC6; read-out: Human HDAC6 IC50) was 0.029 µM. The IC50 (HDAC6; [3]) was 0.029 µM, the IC50 (HDAC7) was greater than 30 µM and the IC50 (HDAC4) was greater than 30 µM.

Work on `Fc1ccc(C(CC(F)(F)F)Nc2ncc(-c3nnc(C(F)F)o3)cn2)cc1` (stereo not drawn) [Example 13, 5-(5-(difluoromethyl)-1,3,4-oxadiazol-2-yl)-N-(3,3,3-trifluoro-1-(4-fluorophenyl)propyl) pyrimidin-2-amine] yielded an IC50 (HDAC9) greater than 30 µM, an IC50 (HDAC8) greater than 30 µM and an IC50 (HDAC5) greater than 30 µM. The IC50 (HDAC10) was greater than 30 µM, the IC50 (HDAC3/NCOR2) was greater than 30 µM and the IC50 (HDAC11) was greater than 30 µM. For the same molecule, the IC50 (HDAC1; read-out: Human HDAC1 IC50) was greater than 30 µM, the IC50 (HDAC1; [2]) was greater than 30 µM and the IC50 (HDAC2) was greater than 30 µM. For the same molecule, the IC50 (HDAC6; read-out: Human HDAC6 IC50) was 0.036 µM, the IC50 (HDAC6; [3]) was 0.036 µM and the IC50 (HDAC7) was greater than 30 µM. The IC50 (HDAC4) was greater than 30 µM.

Molecule `Fc1ccc(C2(Nc3ncc(-c4nnc(C(F)F)o4)cn3)CC2)c(Cl)c1` [Example 62, N-(1-(2-chloro-4-fluorophenyl)cyclopropyl)-5-(5-(difluoromethyl)-1,3,4-oxadiazol-2-yl)pyrimidin-2-amine] has an IC50 (HDAC9) greater than 30 µM, an IC50 (HDAC8) greater than 30 µM and an IC50 (HDAC5) greater than 30 µM. It also gave an IC50 (HDAC10) greater than 30 µM, an IC50 (HDAC3/NCOR2) greater than 30 µM and an IC50 (HDAC11) greater than 30 µM. The IC50 (HDAC1; read-out: Human HDAC1 IC50) was greater than 30 µM, the IC50 (HDAC1; [2]) was greater than 30 µM and the IC50 (HDAC2) was greater than 30 µM. The IC50 (HDAC6; read-out: Human HDAC6 IC50) was 0.008 µM, the IC50 (HDAC6; [3]) was 0.008 µM and the IC50 (HDAC7) was greater than 30 µM. For the same molecule, the IC50 (HDAC4) was greater than 30 µM.

Work on `C[C@@H](Nc1ncc(-c2nnc(C(F)F)o2)cn1)c1ccc(F)cc1F` [Example 99-R, 5-[5-(difluoromethyl)-1,3,4-oxadiazol-2-yl]-N-[(1R)-1-(2,4-difluorophenyl)ethyl]pyrimidin-2-amine] yielded an IC50 (HDAC9) greater than 30 µM, an IC50 (HDAC8) greater than 30 µM and an IC50 (HDAC5) greater than 30 µM. The IC50 (HDAC10) was greater than 30 µM, the IC50 (HDAC3/NCOR2) was greater than 30 µM and the IC50 (HDAC11) was greater than 30 µM. For the same molecule, the IC50 (HDAC1; read-out: Human HDAC1 IC50) was greater than 30 µM, the IC50 (HDAC1; [2]) was greater than 30 µM and the IC50 (HDAC2) was greater than 30 µM. For the same molecule, the IC50 (HDAC6; read-out: Human HDAC6 IC50) was 0.028 µM, the IC50 (HDAC6; [3]) was 0.028 µM and the IC50 (HDAC7) was greater than 30 µM. The IC50 (HDAC4) was greater than 30 µM.
